Residue numbers refer to the chain shown, from its start.
Legend:
Experiment in all cases: Competition binding: inhibition of WK(FITC)YMVm binding to FPR2 (wild type and mutants), HEK293F cells
FPR2 [1] = biological target: T1, FPR2 (Homo sapiens, UniProt P25090, L198W); conditions: FPR2 L198W, mean ± SEM
T1 construct: expressed in transfected cells; host or cells: HEK293F cells, pTT5 vector
T1 sequence (P25090 1-351 L198W): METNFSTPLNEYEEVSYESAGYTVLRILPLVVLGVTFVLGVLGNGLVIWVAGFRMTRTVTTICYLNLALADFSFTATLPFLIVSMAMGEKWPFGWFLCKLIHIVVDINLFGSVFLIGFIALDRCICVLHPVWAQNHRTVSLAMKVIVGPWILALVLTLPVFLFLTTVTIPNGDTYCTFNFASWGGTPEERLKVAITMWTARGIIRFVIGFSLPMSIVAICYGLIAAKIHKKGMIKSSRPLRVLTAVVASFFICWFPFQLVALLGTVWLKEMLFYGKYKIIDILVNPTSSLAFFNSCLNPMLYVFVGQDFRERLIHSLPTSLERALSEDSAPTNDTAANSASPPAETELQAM
Method: (§1) The genes of wild-type FPR1 and FPR2 and mutants with a Flag tag at the N termini were cloned into pTT5 vector (Invitrogen) and expressed in HEK293F cells (Invitrogen). Cells were harvested 48 h post transfection with 1 μg ml^−1 plasmid. Cell-surface expression of the receptors was measured by mixing 10 μl cells with 15 μl of TBS buffer supplemented with 4% BSA, 20% (v/v) viability-staining solution 7-AAD (Invitrogen, Cat#00-6993-50), and 0.1% (v/v) anti-FLAG M2-FITC antibody (Sigma, Cat#F4049) at 4 °C for 20 min. After incubation, 175 μl of TBS buffer was added and the fluorescent signal was measured using a flow-cytometry reader (Guava easyCyte HT, Millipore). Then, the cells were washed and resuspended to a final concentration of 1 × 10^6 cells per ml in Hanks’ Balanced Salt Solution (HBSS) buffer supplemented with 0.5% bovine serum albumin (BSA) and 20 mM HEPES, pH 7.4.
(§2) The mean fluorescent intensity of each well was then read by the FCM reader. Total binding and nonspecific binding were measured in the absence and presence of the unlabeled ligand (200 μM WKYMVm), respectively. […] Mean fluorescent-intensity values were measured by flow cytometry. Data were analyzed using Prism 8.0 (GraphPad software).

FPR2 [2] = biological target: T2, FPR2 (Homo sapiens, UniProt P25090, L272W); conditions: FPR2 L272W, mean ± SEM
T2 construct: expressed in transfected cells; host or cells: HEK293F cells, pTT5 vector
T2 sequence (P25090 1-351 L272W): T1 sequence (P25090 1-351 L198W) with W198L, L272W
Method: as §1, §2

FPR2 [3] = biological target: T3, FPR2 (Homo sapiens, UniProt P25090, M85K); conditions: FPR2 M85K, mean ± SEM
T3 construct: expressed in transfected cells; host or cells: HEK293F cells, pTT5 vector
T3 sequence (P25090 1-351 M85K): T1 sequence (P25090 1-351 L198W) with M85K, W198L
Method: as §1, §2

**Q.** How did the Ki (FPR2 [1]) turn out when `CC[C@H](C)[C@H](NC(=O)[C@H](CCC(=O)O)NC(=O)[C@H](CO)NC(=O)[C@@H](NC(=O)[C@H](CC(C)C)NC(=O)[C@H](CC(C)C)NC(=O)[C@H](CC(C)C)NC(=O)[C@H](CC(C)C)NC(=O)[C@H](CS)NC(=O)[C@H](CO)NC(=O)[C@H](Cc1ccccc1)NC(=O)CNC(=O)[C@H](CCCNC(=N)N)NC(=O)[C@@H]1CCCN1C(=O)[C@H](C)NC(=O)[C@H](CCSC)NC=O)[C@@H](C)O)C(=O)N[C@@H](CC(=O)O)C(=O)N[C@@H](CC(C)C)C(=O)N1CCC[C@H]1C(=O)N[C@H](C(=O)N[C@@H](CCCCN)C(=O)N[C@@H](CCCNC(=N)N)C(=O)N[C@@H](CCCNC(=N)N)C(=O)N[C@@H](C)C(=O)O)C(C)C` [fHN, N-formyl humanin] was run?
**A.** 646 nM

**Q.** What about the Ki (FPR2 [2]) of the same molecule?
**A.** 479 nM

**Q.** And the Ki (FPR2 [3])?
**A.** 309 nM

Source: article PMC8976073 (Nature Communications, 2022)
